The values that follow come from patent publication US20240279278A1, “NMU RECEPTOR 2 AGONISTS” (Boehringer Ingelheim International GmbH, priority 2023, published 2024).

One data set is described as follows: in vivo. More on the design: species or system NMRI mice. To be noted: male, NMRI, mouse, iv. On the procedure: Example 5: Pharmacokinetics Intravenous (iv) PK in Mouse Pharmacokinetic parameters of the test compounds were determined after intravenous administration to Naval Medical Research Institute (NMRI) mice. Male NMRI mice were obtained either from Charles River (Germany) or from Janvier (France) weighing approximately 30 g to 40 g. Mice were housed in standard cages with light cycle of 12-hour dark and 12-hour light. Standardized food and water were offered ad libitum to the animals during the whole experimental period. The respective peptide was dissolved in 50 mM phosphate buffer (pH 7.4) containing 3.5% mannitol. Intravenous doses of 30 nmol/kg were given via a tail vein. Serial blood samples were collected from the vena saphena into tubes containing EDTA as anticoagulant at different time points up to 48 hours post dosing. After centrifugation for approximately 5 minutes, plasma samples were transferred to 96-well Polymerase Chain Reaction (PCR) plates, immediately frozen and kept at approximately −20° C. until analyzed for plasma concentration by liquid chromatography mass spectrometry (LC-MS/MS). Individual plasma concentration-time profiles were analyzed by a non-compartmental approach, and the resulting pharmacokinetic parameters were determined.

Data set [1] in a line: Effect on acute food intake in normal NMRI mice. It is filed as in vivo. The settings on record: male NMRI mice, single subcutaneous dose 100 nmol/kg, normalized to vehicle group. As to the method:
Example 9: Pharmacodynamics Effect on Acute Food Intake in Normal NMRI Mice
Male NMRI mice were obtained from Charles River (Charles River, Research Models & Services Germany GmbH) or from JanVier (JanVier Labs, France) at 3 weeks of age. The animals were group housed 4 mice pr. cage under a 12/12 hours dark-light cycle, light off at 3 pm. Room temperature was controlled to 21° C.±1° C., with 60%±20% humidity. Animals had ad libitum access to regular rodent chow (KLIBA Nafag 3430 or Altromin 1324, Brogaarden, Denmark) and tap water. Animals were transferred at 6 weeks of age, 5-7 days before the start of the study to a real-time food intake monitoring system, HM-2 system (MBRose, Denmark), to allow acclimatization to experimental conditions. As the animals were uniquely identified with microchips, each individual animal was identified by its microchip upon entry and exit from the food channel. Randomization of the mice for each study group (n=8-11) was based on body weight measured the day before the start of the study. A vehicle-treated (50 mM acetate buffer pH 7.4 with 3.5% mannitol) group was included in each experiment. Six hours before the start of the night phase animals were fasted. One hour before the dark phase animals were dosed once subcutaneously with test peptide. Food intake was reported hourly for a period of 24 hours. The food intake of the treated groups was normalized (in %) to the average food intake of the group receiving vehicle (table 10). Statistical significance was evaluated using One-way analysis of variance with Bonferroni's multiple comparison test. P<0.05 was considered statistically significant.

The structures appear in SMILES notation. Residues, ends and D or L forms follow the SMILES beside them.

As a reminder, the MRT is a mean duration of stay, worked out from the concentration-time curve. On to `CCCC[C@H](NC(=O)[C@H](CC(C)C)N(C)C(=O)[C@H](Cc1ccccc1)NC(=O)[C@H](Cc1ccc(O)cc1)NC(=O)CN1CCN(CCNC(=O)CN(C)C(=O)CN(C)C(=O)CN(C)C(=O)CN(C)C(=O)CN(C)C(=O)CN(C)C(=O)CN(C)C(=O)CN(C)C(=O)CN(C)C(=O)CN(C)C(=O)CN(C)C(=O)CN(C)C(=O)CN(C)C(=O)CN(C)C(=O)CN(C)C(=O)CC[C@H](NC(=O)CC[C@H](NC(=O)CC[C@H](NC(=O)CCCCCCCCCCCCCCCCCCC(=O)O)C(=O)O)C(=O)O)C(=O)O)CC1)C(=O)N[C@@H](CCCN)C(=O)N1CCC[C@H]1C(=O)N[C@@H](CCCNC(=N)N)C(=O)NCC(N)=O` [Compound 1, C20DA-gGlu3-Sar15-AEPipAc-Tyr-Phe-NMeLeu-Nle-Orn-Pro-Arg-Gly-NH2] (HELM PEPTIDE1{[O=C(O)CCCCCCCCCCCCCCCCCCC(=O)[*:2]].[gGlu].[gGlu].[gGlu].[Sar].[Sar].[Sar].[Sar].[Sar].[Sar].[Sar].[Sar].[Sar].[Sar].[Sar].[Sar].[Sar].[Sar].[Sar].[O=C(CN1CCN(CCN[*:1])CC1)[*:2]].Y.F.[meL].[Nle].[Orn].P.R.G.[am]}$$$$V2.0), for which the MRT in “in vivo” and in the data set “in vivo” (30 nmol/kg) was 38.1 h each time. Also, in data set [1], the “Acute Food Intake 24 h” value is 31% vehicle.
Consider `CCCC[C@H](NC(=O)[C@H](CC(C)C)N(C)C(=O)[C@H](Cc1ccccc1)NC(=O)[C@H](Cc1ccc(O)cc1)NC(=O)CN1CCN(CCNC(=O)CN(C)C(=O)CN(C)C(=O)CN(C)C(=O)CN(C)C(=O)CN(C)C(=O)CN(C)C(=O)CN(C)C(=O)CN(C)C(=O)CN(C)C(=O)CN(C)C(=O)CN(C)C(=O)CN(C)C(=O)CN(C)C(=O)CN(C)C(=O)CN(C)C(=O)CC[C@H](NC(=O)CC[C@H](NC(=O)CC[C@H](NC(=O)CCCCCCCCCCCCCCCCC(=O)O)C(=O)O)C(=O)O)C(=O)O)CC1)C(=O)N[C@@H](CCCNC(=N)N)C(=O)N1CCC[C@H]1C(=O)N[C@@H](CCCNC(=N)N)C(=O)NCC(N)=O` [Compound 7, C18DA-gGlu3-Sar15-AEPipAc-Tyr-Phe-NMeLeu-Nle-Arg-Pro-Arg-Gly-NH2] (HELM PEPTIDE1{[O=C(O)CCCCCCCCCCCCCCCCC(=O)[*:2]].[gGlu].[gGlu].[gGlu].[Sar].[Sar].[Sar].[Sar].[Sar].[Sar].[Sar].[Sar].[Sar].[Sar].[Sar].[Sar].[Sar].[Sar].[Sar].[O=C(CN1CCN(CCN[*:1])CC1)[*:2]].Y.F.[meL].[Nle].R.P.R.G.[am]}$$$$V2.0), for which the MRT in the data set “in vivo” and in the data set “in vivo” (30 nmol/kg) was 17.4 h each time. Further, the “Acute Food Intake 24 h” value in data set [1] stood at 46% vehicle.
In the case of `CCCC[C@H](NC(=O)[C@H](CC(C)C)N(C)C(=O)[C@H](Cc1ccccc1)NC(=O)[C@H](Cc1ccc(O)cc1)NC(=O)CN1CCN(CCNC(=O)CN(C)C(=O)CN(C)C(=O)CN(C)C(=O)CN(C)C(=O)CN(C)C(=O)CN(C)C(=O)CN(C)C(=O)CN(C)C(=O)CN(C)C(=O)CN(C)C(=O)CN(C)C(=O)CN(C)C(=O)CN(C)C(=O)CN(C)C(=O)CN(C)C(=O)CC[C@H](NC(=O)CC[C@H](NC(=O)CC[C@H](NC(=O)CCCCCCCCCCCCCCCCC(=O)O)C(=O)O)C(=O)O)C(=O)O)CC1)C(=O)N[C@@H](CCN)C(=O)N1CCC[C@H]1C(=O)N[C@@H](CCCNC(=N)N)C(=O)NCC(N)=O` [Compound 26, C18DA-gGlu3-Sar15-AEPipAc-Tyr-Phe-NMeLeu-Nle-Dbu-Pro-Arg-Gly-NH2] (HELM PEPTIDE1{[O=C(O)CCCCCCCCCCCCCCCCC(=O)[*:2]].[gGlu].[gGlu].[gGlu].[Sar].[Sar].[Sar].[Sar].[Sar].[Sar].[Sar].[Sar].[Sar].[Sar].[Sar].[Sar].[Sar].[Sar].[Sar].[O=C(CN1CCN(CCN[*:1])CC1)[*:2]].Y.F.[meL].[Nle].[Dab].P.R.G.[am]}$$$$V2.0), the MRT in the data set “in vivo” (30 nmol/kg) was found to be 12.4 h. For the same compound, the “Acute Food Intake 24 h” value in data set [1] worked out at 37% vehicle.
As for `CCCC[C@H](NC(=O)[C@H](CC(C)C)N(C)C(=O)[C@H](Cc1ccccc1)NC(=O)[C@H](Cc1ccc(O)cc1)NC(=O)CN1CCN(CCNC(=O)CN(C)C(=O)CN(C)C(=O)CN(C)C(=O)CN(C)C(=O)CN(C)C(=O)CN(C)C(=O)CN(C)C(=O)CN(C)C(=O)CN(C)C(=O)CN(C)C(=O)CN(C)C(=O)CN(C)C(=O)CN(C)C(=O)CN(C)C(=O)CN(C)C(=O)CC[C@H](NC(=O)CC[C@H](NC(=O)CC[C@H](NC(=O)CCCCCCCCCCCCCCCCCCC(=O)O)C(=O)O)C(=O)O)C(=O)O)CC1)C(=O)N[C@@H](CCN)C(=O)N1CCC[C@H]1C(=O)N[C@@H](CCCNC(=N)N)C(=O)NCC(N)=O` [Compound 42, C20DA-gGlu3-Sar15-AEPipAc-Tyr-Phe-NMeLeu-Nle-Dbu-Pro-Arg-Gly-NH2] (HELM PEPTIDE1{[O=C(O)CCCCCCCCCCCCCCCCCCC(=O)[*:2]].[gGlu].[gGlu].[gGlu].[Sar].[Sar].[Sar].[Sar].[Sar].[Sar].[Sar].[Sar].[Sar].[Sar].[Sar].[Sar].[Sar].[Sar].[Sar].[O=C(CN1CCN(CCN[*:1])CC1)[*:2]].Y.F.[meL].[Nle].[Dab].P.R.G.[am]}$$$$V2.0), in the data set “in vivo” (30 nmol/kg), the MRT turned out to be 31.2 h. Moreover, the “Acute Food Intake 24 h” value in data set [1] worked out at 41% vehicle.
Turning to `CCCC[C@H](NC(=O)[C@H](CC(C)C)N(C)C(=O)[C@H](Cc1ccccc1)NC(=O)[C@H](Cc1ccc(O)cc1)NC(=O)CN1CCN(CCNC(=O)CN(C)C(=O)CN(C)C(=O)CN(C)C(=O)CN(C)C(=O)CN(C)C(=O)CN(C)C(=O)CN(C)C(=O)CN(C)C(=O)CN(C)C(=O)CN(C)C(=O)CN(C)C(=O)CN(C)C(=O)CN(C)C(=O)CN(C)C(=O)CN(C)C(=O)CC[C@H](NC(=O)CC[C@H](NC(=O)CC[C@H](NC(=O)CCCCCCCCCCCCCCCCCCC(=O)O)C(=O)O)C(=O)O)C(=O)O)CC1)C(=O)N[C@@H](CCN)C(=O)N(C)[C@@H](C)C(=O)N[C@@H](CCCNC(=N)N)C(=O)NCC(N)=O` [Compound 43, C20DA-gGlu3-Sar15-AEPipAc-Tyr-Phe-NMeLeu-Nle-Dbu-NMeAla-Arg-Gly-NH2] (HELM PEPTIDE1{[O=C(O)CCCCCCCCCCCCCCCCCCC(=O)[*:2]].[gGlu].[gGlu].[gGlu].[Sar].[Sar].[Sar].[Sar].[Sar].[Sar].[Sar].[Sar].[Sar].[Sar].[Sar].[Sar].[Sar].[Sar].[Sar].[O=C(CN1CCN(CCN[*:1])CC1)[*:2]].Y.F.[meL].[Nle].[Dab].[meA].R.G.[am]}$$$$V2.0), the MRT in “in vivo” (30 nmol/kg) was determined as 37.7 h. Further, in data set [1], the “Acute Food Intake 24 h” value was 28% vehicle.
